Experimental findings from ChEMBL document CHEMBL5131439, “Triproamide and Pemukainalides, Cyclic Depsipeptides from the Marine Cyanobacterium Symploca hydnoides” (J Nat Prod, 2022) are described below.

pIC50: −log10 of the molar value. Starred links: 1 amine or outer side, 2 acyl side, 3 side chain; linkers in the order of their positions; H or OH if unused. Non-standard residues stand in square brackets, D forms with d. Residues, ends and D or L forms follow the SMILES beside them. X1 = C[C@H](Cc1ccccc1)[C@H](N[*:1])C(=O)[*:2]; X2 = CC(C)[C@@H](N[*:1])[C@@H](C)C(=O)[*:2]; dNMeV = CN[C@@H](C(=O)O)C(C)C; dHiv = CC(C)[C@@H](O)C(=O)O; Lac = C[C@H](O)C(=O)O

This test deals with MOLT-4. As to the kind of experiment: Cytotoxicity against human MOLT-4 cells assessed as reduction in cell viability incubated for 24 hrs by MTT assay. The conditions noted are these: MOLT-4, 24 h. It is filed as functional, cell-based.
`C#CCCC[C@@H]1OC(=O)[C@H](Cc2ccccc2)NC(=O)[C@H](C(C)C)NC(=O)[C@@H]2CCCN2C(=O)[C@@H]2CCCN2C(=O)[C@H](C)OC(=O)[C@@H](C(C)C)N(C)C(=O)[C@H](C(C)C)NC(=O)C1(C)C`: the pIC50 was 5.23.

In the case of `CCCCC[C@@H]1OC(=O)[C@H](Cc2ccccc2)NC(=O)[C@H](C(C)C)NC(=O)[C@@H]2CCCN2C(=O)[C@@H]2CCCN2C(=O)[C@H](C)OC(=O)[C@@H](C(C)C)N(C)C(=O)[C@H](C(C)C)NC(=O)C1(C)C`, the negative logarithm of the IC50 (pIC50) was 4.43.

For the molecule `C=CCCC[C@@H]1OC(=O)[C@H](Cc2ccccc2)NC(=O)[C@H](C(C)C)NC(=O)[C@@H]2CCCN2C(=O)[C@@H]2CCCN2C(=O)[C@H](C)OC(=O)[C@@H](C(C)C)N(C)C(=O)[C@H](C(C)C)NC(=O)C1(C)C`, the pIC50 was 5.25.

With `CC(C)[C@@H]1OC(=O)[C@H](C)[C@@H](C(C)C)NC(=O)[C@@H]2CCCN2C(=O)[C@H]([C@H](C)Cc2ccccc2)NC(=O)[C@@H]2CCCN2C(=O)[C@@H](C(C)C)OC(=O)[C@@H]2CCCN2C(=O)[C@@H](C(C)C)N(C)C1=O`, the pIC50 was 4.64.

On to `CC(C)[C@H]1NC(=O)[C@@H]2CCCN2C(=O)[C@H]([C@H](C)Cc2ccccc2)NC(=O)[C@@H]2CCCN2C(=O)[C@@H](C(C)C)N(C)C(=O)[C@@H](C(C)C)OC(=O)[C@@H]2CCCN2C(=O)[C@H](C)OC(=O)[C@@H]1C` (cyclo([Lac]P[dHiv][dNMeV]P[X1]P[X2])), for which the pIC50 was 5.60.

The pIC50 is the negative decadic logarithm of the IC50, by convention in mol/L.
